The results in this text go back to patent EP1290011B1 (Oncopeptides AB, priority 2000, dated 2001).

Each structure is given as a SMILES string.

In general, IC50 refers to the midpoint of a concentration-inhibition curve.

One data set concerns U-937. As to the kind of experiment: FMCA comparing J1 and AcJ1. It is filed as cell-based. The settings on record: U-937 cell line. As for the experimental part: (§1) The fluorometric microculture cytotoxicity assay (FMCA) (Larsson, R., et al- 1992: Int J Cancer, 50, 177-185) was used to evaluate the compounds. Briefly, 96-well microtiter plates (NUNC, Roskilde, Denmark) are prepared with 20 µl drug solution at ten times the desired concentration and stored for up to two months at -70°C. In general the substances are first dissolved in absolute or acidic ethanol to concentrations of 4.0 to 8.2 mM and further diluted with sterile water or sterile phosphate buffered saline (PBS, Sigma chemicals). All dilutions with water are made directly before the experiments to minimise the influence of mustard hydrolysis. […] At day zero of the experiment 180 µl of cell suspension of adequate concentration is added to the wells of the thawed plate, six wells serve as controls (cell suspension only) and six wells as blanks (cell medium only). After 72 hours incubation the cells are washed once with PBS, and 100 µl of fluorescein diacetate (10 µg/ml) in a physiological buffer is added. After another 45 min the generated fluorescence (ex 485 nm; em 528 nm) is measured in a 96-well scanning fluorometer (Fluoroscan II, Labsystems Oy, Helsinki, Finland). […]

The test system of a further data set is RPMI 8226S. As to the kind of experiment: FMCA comparing J1 and AcJ1. It is filed as cell-based. The conditions noted are these: RPMI 8226S cell line. As for the experimental part: as §1
The test system of another data set is U-1568. The data set can be described thus: cells. It is filed as cell-based. The conditions noted are these: U-1568, non-small cell lung cancer; read-out: IC50.
A further data set deals with NCI-H611. The data set can be described thus: cells. The class given is cell-based. The settings on record: NCI-H611, non-small cell lung cancer; read-out: IC50.
For a further data set, the system named is NCI-H125. As to the kind of experiment: cells. It is filed as cell-based. The conditions noted are these: NCI-H125, non-small cell lung cancer; read-out: IC50.
The subject of a further data set is Adeno-carcinoma. The data set can be described thus: Cytotoxic activity in different tumour models. The class given is cell-based, human. The settings on record: Number 5.
In the next data set the test system is Ovarian carcinoma. The data set can be described thus: Cytotoxic activity in different tumour models. The settings on record: Number 8. It is filed as cell-based, human.
The next data set relates to U1690. As to the kind of experiment: cells. The class given is cell-based. The settings on record: U1690, small cell lung cancer; read-out: IC50.
For a further data set, the system named is NSC Lung cancer. As to the kind of experiment: Cytotoxic activity in different tumour models. The settings on record: Number 8. The class given is cell-based, human.
The subject of the next data set is NCI-H157. As to the kind of experiment: cells. The class given is cell-based. The settings on record: NCI-H157, non-small cell lung cancer; read-out: IC50.
For data set [1], the system named is fresh human tumour specimens. The data set can be described thus: FMCA cytotoxic activity in 27 fresh human tumour specimens (Figure 2). The settings on record: 27 human tumour samples, 14 hematological and 13 solid, comparative statement. It is filed as cell-based.
For another data set, the system named is ACHN. As to the kind of experiment: cells. It is filed as cell-based, human. The settings on record: ACHN, primary resistant renal carcinoma; 72 hours incubation; read-out: IC50.
Data set [2] has as its system panel of ten human tumour cell lines. The data set can be described thus: cells. The conditions noted are these: mean over the ten cell lines; read-out: MEAN IC50. It is filed as cell-based.
Data set [3] concerns solid tumour fresh human tumour specimens (PHTC). The settings on record: 0.66 µM; n=22; 4320 min.
The next data set has as its system U-1752. The data set can be described thus: cells. The class given is cell-based. The conditions noted are these: U-1752, non-small cell lung cancer; read-out: IC50.
A further data set concerns 8226LR5. The data set can be described thus: cells. It is filed as cell-based, human. The settings on record: 8226LR5, melphalan resistance; 72 hours incubation; read-out: IC50.
The subject of a further data set is H69AR. As to the kind of experiment: cells. The class given is cell-based, human. The settings on record: H69AR, doxorubicin resistance; 72 hours incubation; read-out: IC50.
A further data set relates to CEM/S. As to the kind of experiment: cells. It is filed as cell-based, human. The settings on record: CEM/S; 72 hours incubation; read-out: IC50.
For data set [4], the system named is primary cultures of human tumor cells from patients (PHTC), Total. The data set can be described thus: FMCA in PHTC cultures, Table 4, total. The settings on record: 4 µM; n=19-31; 4320 min.
Another data set deals with Corpus cancer. As to the kind of experiment: Cytotoxic activity in different tumour models. It is filed as cell-based, human. The conditions noted are these: Number 4.
The next data set has as its system Solid tumours (PHTC). The data set can be described thus: FMCA in PHTC cultures, Table 4, solid. The conditions noted are these: 4 µM; n=12-20; 4320 min.
A further data set has as its system U-1906E. As to the kind of experiment: cells. It is filed as cell-based. The conditions noted are these: U-1906E, small cell lung cancer; read-out: IC50.
The subject of a further data set is H69. As to the kind of experiment: cells. It is filed as cell-based, human. The conditions noted are these: H69, small cell lung cancer; 72 hours incubation; read-out: IC50.
The next data set deals with U937vcr. The data set can be described thus: cells. It is filed as cell-based, human. The settings on record: U937vcr, vincristine resistance; 72 hours incubation; read-out: IC50.
Data set [5] concerns PHTC samples from 9 patients with hematological and 18 patients with solid tumours. The data set can be described thus: Circumvention of melphalan resistance: FMCA classification of PHTC samples as LDR, IDR, EDR. The class given is cell-based, human. The conditions noted are these: tested at 4 µM.
The subject of the next data set is U-1810. As to the kind of experiment: cells. The class given is cell-based. The conditions noted are these: U-1810, non-small cell lung cancer; read-out: IC50.
Another data set concerns Breast cancer. As to the kind of experiment: Cytotoxic activity in different tumour models. It is filed as cell-based, human. The settings on record: Number 4.
In a further data set the test system is CEM/R. As to the kind of experiment: cells. It is filed as cell-based, human. The settings on record: CEM/R; 72 hours incubation; read-out: IC50.
The test system of the next data set is 8226S. The data set can be described thus: cells. The class given is cell-based, human. The settings on record: 8226S, myeloma; 72 hours incubation; read-out: IC50.
The test system of the next data set is 8226Dox40. As to the kind of experiment: cells. The class given is cell-based, human. The conditions noted are these: 8226Dox40, doxorubicin resistance; 72 hours incubation; read-out: IC50.
Another data set deals with U1285. As to the kind of experiment: cells. It is filed as cell-based. The settings on record: U1285, small cell lung cancer; read-out: IC50.
In another data set the test system is NCI-H23. The data set can be described thus: cells. It is filed as cell-based. The settings on record: NCI-H23, non-small cell lung cancer; read-out: IC50.
The next data set relates to U937gtb. As to the kind of experiment: cells. The settings on record: U937gtb, lymphoma; 72 hours incubation; read-out: IC50. The class given is cell-based, human.
In the next data set the test system is U1906L. As to the kind of experiment: cells. The settings on record: U1906L, small cell lung cancer; read-out: IC50. It is filed as cell-based.
Data set [6] has as its system hematological fresh human tumour specimens (PHTC). The conditions noted are these: 0.66 µM; n=42; 4320 min.
Data set [7] deals with Hematological tumours (PHTC). As to the kind of experiment: FMCA in PHTC cultures, Table 4, hematological. The settings on record: 4 µM; n=7-11; 4320 min.

For `CCOC(=O)[C@H](Cc1ccc(F)cc1)NC(=O)[C@H](Cc1ccc(N(CCCl)CCCl)cc1)NC(C)=O` [AcJ1, N-Acetyl-L-melphalanyl-L-p-fluorophenylalanine ethyl ester], the figures for the IC50 in the data set on U-937 and in the data set with RPMI 8226S were 610 nM and 2900 nM, respectively.

With `CCOC(=O)[C@H](Cc1ccc(F)cc1)NC(=O)[C@@H](N)Cc1ccc(N(CCCl)CCCl)cc1.Cl` [Example J1, L-Melphalanyl-L-p-fluorophenylalanine ethyl ester hydrochloride], the IC50 in the data set on U-1568 amounted to 1640 nM; with NCI-H611, 3170 nM; in the data set with NCI-H125 it was 9730 nM; with U1690 it was 1390 nM; with NCI-H157, 3900 nM; in the data set with ACHN, 400 nM. For the same molecule, the IC50 is 660 nM in data set [2]; 1300 nM with U-1752; 2470 nM in the data set with 8226LR5; below 9000 nM in the data set on H69AR; 30 nM in the data set with CEM/S; 1170 nM with U-1906E. Besides, the IC50 amounted to 40 nM in the data set on H69; 110 nM in the data set with U937vcr; 10 nM in the data set on U-1810; 10 nM in the data set on CEM/R; 810 nM in the data set on 8226S; 1760 nM in the data set with 8226Dox40. Besides, the IC50 amounted to 40 nM in the data set with U1285, 7600 nM in the data set on NCI-H23, 70 nM in the data set on U937gtb and 220 nM in the data set with U1906L. The “Median response at 4.0 µM >50% reduction in tumour cell survival” value in the data set with Adeno-carcinoma is “Yes”; with Ovarian carcinoma, “Yes”; in the data set on NSC Lung cancer it was “Yes”; in the data set with Corpus cancer it was “No”; with Breast cancer, “Yes”. Moreover, the “IC50s (comparison)” value in data set [1] is “in all cases was more active than P2”. Moreover, the “Tumour cell survival index % Solid” value in data set [3] is given as 46.9%. Further, the “Tumour cell survival index (%) Total” value in [4] stood at 40.9%. Moreover, the “Tumour cell survival index (%) Solid tumours” value with Solid tumours (PHTC) turned out to be 56.5%. Also, the “Number of samples EDR” value in [5] (Extreme drug resistance) is on record as 1. Besides, the “Number of samples (%) EDR” value in data set [5] (Extreme drug resistance, percent of samples) was 6%. In data set [5] (Intermediate drug resistance), the “Number of samples IDR” value was found to be 3. For the same molecule, the “Number of samples (%) IDR” value in data set [5] (Intermediate drug resistance, percent of samples) came out at 18%. The “Number of samples LDR” value in data set [5] (Low drug resistance) was 13. In addition, the “Number of samples (%) LDR” value in data set [5] (Low drug resistance, percent of samples) is reported as 76%. The “Tumour cell survival index % Hematological” value in [6] was 13.7%. Besides, the “Tumour cell survival index (%) Hematological tumours” value in [7] came out at 6.6%.
